# Columns and labels:
# [1] = tested on: trigeminal ganglion CGRP; test: CGRP immunostaining of trigeminal ganglion (V1) in naïve animals 24 hours after N2B IGF-1; type: in vivo, rat
# Experimental: 24 hours later animals were re-anesthetized, brains harvested and processed for CGRP immunostaining of the TG. Images were obtained from each animal and image fluorescence intensity quantified via a digital imaging strategy. Three images were measured per animal and the averages recorded. Nasal delivery and image processing was completed while blinded to conditions. Experiments, immunostaining and imaging were done in pairs (i.e., sham and IGF-1) to reduce potential variability. […] This reduction was significant (p<0.001; alpha=0.05; power of 1.00). Scale bar=50 μm. […]
# The inventors used computer-based and blinded semi-quantitative digital quantification of immunostaining metrics to test the ability of N2B IGF-1 to impact TS activation. […]
# Imaging was performed using a Photometrics self-calibrating digital camera QuantEM-512SC camera (500×500 pixels; Photometrics, Tucson, AZ) run on MetaMorph software (v. 7.0.4; Molecular Devices, Sunnyvale, CA) under blinded conditions (as previously described (13, 20-22). Image exposure, camera gain and thresholding were uniformly set (i.e., equivalently for experimental and sham groups for each imaging metric (i.e., MDA, CGRP and c-fos). Resultant images were digitally stored as TIFF files for subsequent analyses that continued under blinded conditions where image integrated fluorescence intensity was registered using MetaMorph software for MDA and CGRP. […]
# [2] = tested on: rat hippocampal brain slice cultures; conditions: cited from earlier work
# [3] = tested on: blood CGRP; test: CGRP plasma assay (ELISA) after recurrent spreading depression; type: in vivo, rat
# Experimental: Blood was collected via cardiac puncture using a 21 gauge syringe needle and transferred into a BD Vacutainer K3 EDTA blood collection tube (366450, Becton, Dickinson & Co., Franklin Lakes, NJ). Samples were spun 1,500 g×10 min at 4° C. The plasma was transferred to sterile 2.0 mL, screw cap, polypropylene tubes and stored at −80° C. until analysis. Plasma samples were sent to Cayman Chemical Company (Ann Arbor, Michigan) for analysis of CGRP content using ELISA methods. According to the vendor, the detection limit is <10 pg/mL.
# [4] = tested on: trigeminal ganglion CGRP; test: CGRP immunostaining of trigeminal ganglion after recurrent spreading depression; type: in vivo, rat; conditions: n=5/group
# Experimental: N2B delivery of 150 μg human recombinant IGF-1 (#191-G1; R&D Systems, Minneapolis, MN) in 50 μL sodium succinate buffer followed the previously described approach (21,51) that was based on the techniques of Liu and coworkers (24) in the recording laboratory under isoflurane anesthesia with spontaneous ventilation.
# Induction of recurrent SD followed previously published aseptic techniques from the inventors' laboratory (8, 13, 21, 25, 26, 51) (FIG. 4). […]
# Imaging was performed using a Photometrics self-calibrating digital camera QuantEM-512SC camera (500×500 pixels; Photometrics, Tucson, AZ) run on MetaMorph software (v. 7.0.4; Molecular Devices, Sunnyvale, CA) under blinded conditions (as previously described (13, 20-22). Image exposure, camera gain and thresholding were uniformly set (i.e., equivalently for experimental and sham groups for each imaging metric (i.e., MDA, CGRP and c-fos). Resultant images were digitally stored as TIFF files for subsequent analyses that continued under blinded conditions where image integrated fluorescence intensity was registered using MetaMorph software for MDA and CGRP.
# Images of MDA and CGRP were analyzed while blinded and later decoded to ratios of experimental/sham image integrated optical intensity, a sensitive metric that not only accounts for the area but also the pixel intensity of related image fluorescence. […]
substance,measurement,setting,value
"IGF-1: human recombinant IGF-1 (#191-G1; R&D Systems), 150 μg in 50 μL sodium succinate buffer, delivered nose-to-brain",reduction of CGRP levels in the trigeminal ganglion of naïve animals,"[1]; N2B IGF-1 150 μg versus sham, 24 hours, p<0.001",~75%
same,"natural logarithm ratio (IGF-1/sham) of CGRP immunostaining, naïve animals",[1]; n=7/group,−1.66±0.32
same,oxidative stress from menadione exposure,[2]; brain slice cultures in vitro,significantly reduced
same,spreading depression in slice cultures,[2]; rat hippocampal brain slice cultures,significantly inhibited spreading depression
same,blood (plasma) CGRP level after recurrent SD,"[3]; IGF-1 pretreatment, n=6/group, three samples below the detection limit",7.7 ± 1.6 pg/mL
same,changes in blood CGRP levels after pretreatment followed by recurrent SD,[3]; IGF-1 versus vehicle,"no significant (p=0.347, power=0.136) changes"
same,log-ratio (IGF-1/sham) of CGRP immunostaining after recurrent CSD,[4],−0.90±0.15
